Measured values from US20240199555A1, “APPLICATIONS OF BIASED LIGANDS OF THE SEROTONIN 5-HT7 RECEPTOR FOR THE TREATMENT OF PAIN, MULTIPLE SCLEROSIS AND THE CONTROL OF THERMOREGULATION” (Centre National de la Recherche Scientifique, priority 2021, published 2024).

Columns and labels:
[1] = target: human 5-HT1A receptor (Homo sapiens (Human), UniProt P08908); test: Radioligand binding competition, 5-HT1A; settings: selectivity panel
Protocol: (§1) FIG. 14: Testing of 8 molecules for radioligand binding competition activity on recombinant human 5-HT1A, 5-HT2A, 5-HT2Cedited, 5-HT6, 5-HT7 and D2(long) receptors using filtration binding assays.
(§2) Radioligand Binding experiments were conducted with Epics Therapeutics membrane preparations. Receptor accession numbers, cellular background and reference compounds are shown in this table.
(§3) The new compounds have been tested by radioligand binding competition activity at the human 5-HT1A (FAST-0500B), 5-HT2A (FAST-0505B), 5-HT2Cedited (FAST-0507B), 5-HT6 (FAST-0509B), 5-HT7a (FAST-05111B) and D2(long) (FAST-0101B) receptors at seven (7) concentrations, in duplicate. […] Reference values thus obtained for the test were compared to historical values obtained from the same receptor and used to validate the experimental session. For replicate determinations, the maximum variability tolerated in the test was of +/−20% around the average of the replicates.
(§4) Dose-response data from test compounds were analyzed with XLfit (IDBS) software using nonlinear regression applied to a sigmoidal dose-response model and the following equation: • XL Fit fit Model 203: 4 Parameter Logistic Model • A: Bottom • B: TOP • C: LogEC50 • D: Hill

[2] = target: human 5-HT2A receptor (Homo sapiens (Human), UniProt P28223); test: Radioligand binding competition, 5-HT2A; settings: selectivity panel
Protocol: as §1, §2, §3, §4

[3] = target: 5-HT7R / β-arrestin2 (Homo sapiens (Human), UniProt P34969); test: β-arrestin 2 BRET in HEK-293 cells transfected with 5-HT7R; type: cell-based; settings: wild type 5-HT7R, intramolecular biosensor
Protocol: FIG. 8: Serodolin-induced ERK phosphorylation is dependent on β-arrestin 2 recruitment. (A) HEK-293 or KO β-arrestin HEK-293 cells were transiently transfected with HA-5-HT7R and stimulated with 5-CT (10 μM), Serodolin (10 μM) or Vehicle (0.1% DMSO diluted in PBS solution) used as a control for 7 min. Representative blots of three independent experiments are illustrated. (B) Quantification of p-ERK and p-c-SRC were performed using Alphascreen technology. Data are means±SEM of values obtained in three independent experiments. (C) HEK-293 cells were transiently transfected with HA-h5-HT7R with β-arrestin2 BRET biosensor (Rluc-Arrestin-YPET), then incubated with increasing doses of 5-CT, or Serodolin (10^-11 to 10^-5 M). Ligand mediated BRET changes are expressed as induced BRET changes which were generated by subtracting at each point the signal of the cells incubated with PBS (without ligand). Data were fitted using non-linear regression using GraphPad Prism software. […]
The inventors then investigated whether the Serodolin-induced β-arrestin recruitement using BRET experiments. […] After transfection of 5-HT7R-RLuc and arrestin2-YFP used as a BRET pair, the inventors evaluated the ability of 5-HT7R ligands to recruit β-arrestin. […]

Sequence of human 5-HT1A receptor (P08908 whole entry): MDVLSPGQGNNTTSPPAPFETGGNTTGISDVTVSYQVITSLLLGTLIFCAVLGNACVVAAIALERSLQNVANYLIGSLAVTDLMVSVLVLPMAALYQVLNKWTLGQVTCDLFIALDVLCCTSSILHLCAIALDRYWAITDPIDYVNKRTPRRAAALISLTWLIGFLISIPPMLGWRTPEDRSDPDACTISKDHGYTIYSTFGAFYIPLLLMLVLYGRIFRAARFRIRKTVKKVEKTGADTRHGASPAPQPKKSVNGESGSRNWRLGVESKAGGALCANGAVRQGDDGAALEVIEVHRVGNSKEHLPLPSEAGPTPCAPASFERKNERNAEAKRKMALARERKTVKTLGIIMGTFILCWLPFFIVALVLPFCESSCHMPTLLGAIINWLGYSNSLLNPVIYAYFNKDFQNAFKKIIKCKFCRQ
Sequence of human 5-HT2A receptor (P28223 whole entry): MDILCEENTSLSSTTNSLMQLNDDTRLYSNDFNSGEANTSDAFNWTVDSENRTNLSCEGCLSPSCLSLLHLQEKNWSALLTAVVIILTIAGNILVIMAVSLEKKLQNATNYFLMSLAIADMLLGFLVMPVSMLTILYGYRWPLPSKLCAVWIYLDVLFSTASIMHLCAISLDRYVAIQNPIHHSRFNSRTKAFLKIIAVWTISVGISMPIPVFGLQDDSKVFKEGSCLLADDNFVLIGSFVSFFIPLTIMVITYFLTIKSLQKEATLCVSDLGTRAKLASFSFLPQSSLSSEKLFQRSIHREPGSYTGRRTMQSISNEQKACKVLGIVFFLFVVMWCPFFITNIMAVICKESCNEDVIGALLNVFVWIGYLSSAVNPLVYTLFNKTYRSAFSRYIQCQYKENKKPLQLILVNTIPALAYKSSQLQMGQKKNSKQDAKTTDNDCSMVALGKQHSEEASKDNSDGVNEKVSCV
Sequence of 5-HT7R / β-arrestin2 (P34969 1-432): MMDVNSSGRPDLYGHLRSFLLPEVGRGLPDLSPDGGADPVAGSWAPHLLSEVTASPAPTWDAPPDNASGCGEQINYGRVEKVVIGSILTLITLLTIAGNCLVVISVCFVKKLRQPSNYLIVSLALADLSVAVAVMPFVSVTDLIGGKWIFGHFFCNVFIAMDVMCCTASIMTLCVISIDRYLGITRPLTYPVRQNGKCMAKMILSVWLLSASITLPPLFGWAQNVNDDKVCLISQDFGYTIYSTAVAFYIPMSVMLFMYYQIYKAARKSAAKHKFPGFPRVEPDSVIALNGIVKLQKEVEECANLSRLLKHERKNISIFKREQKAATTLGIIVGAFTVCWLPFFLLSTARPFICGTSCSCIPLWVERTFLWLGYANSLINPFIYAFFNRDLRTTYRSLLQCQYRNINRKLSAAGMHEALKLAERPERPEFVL

## O=c1[nH]c2ccccc2n1CN1CCN(c2ccc(F)cc2)CC1 [Serodolin]
[1]; read-out: RLB 5-HT1A IC50
  IC50: 203 nM
[1]; read-out: RLB 5-HT1A Ki
  Ki: 102 nM
[2]; read-out: RLB 5-HT2A IC50
  IC50: 16.9 nM
[2]; read-out: RLB 5-HT2A Ki
  Ki: 2.8 nM
[3]
  BRET signal of RLuc-arrestin2-YPET biosensor: concentration-dependent increase of BRET signal
